Test results from US20040033982A1, “Viral inhibition by n-docosanol” (priority 2001, published 2004).
Entries after “also recorded” stand apart in the source; their conditions may differ.

What was measured:
[1] = system: acyclovir-resistant HSV-2; experiment: Plaque formation by acyclovir-resistant HSV-2 in Vero cells; assay type: cell-based; conditions: FIG. 7, Panel B
Procedure: FIG. 7 depicts data showing that n-docosanol inhibits acyclovir-resistant HSV-2. Vero cells were cultured in 35-mm wells (6×10^5 cells per well) in medium alone (=none) or in the presence of the indicated concentration of acyclovir, n-docosanol-Pluronic F-68 suspension or control suspension (Pluronic F-68 only). The cultures were inoculated 24 hours later with 150 PFU of either wild-type HSV-2 or an acyclovir-resistant laboratory isolate from the wild-type HSV-2 that was plaque purified and passaged in 20 μg/ml acyclovir 44 hours later, the plates were incubated, fixed, stained, and scored for numbers of plaques. The data presented are means of plaques scored from duplicate cultures. The percent inhibition observed in cultures treated with acyclovir or n-docosanol relative to untreated control cultures is denoted in parentheses.

HSV [2] = experiment: Direct viricidal activity (virus mixed with suspension, infectivity recovered)
Procedure: Extensive studies designed to delineate the mechanism by which n-docosanol exerts its antiviral activity were conducted. The collective implications of the results of the studies are that the compound appears to interfere with one or more of the common pathways of viral entry into the cell and migration to the nucleus of infected target cells.
Instead, the drug apparently modifies the target cell in a manner that inhibits viral replication.

HSV-2 = HSV-2 internalization into Vero cells (citrate buffer wash); assay type: cell-based
Procedure: FIG. 9 depicts data showing that HSV-2 remains on the surface of n-docosanol treated Vero cells for prolonged times. Vero cells were cultured as described in the legend to FIG. 7 and incubated overnight. The cultures were then chilled to 4° C., inoculated with 100 PFU of HSV-2, and incubated 3 hours at 4° C. At time zero the cultures were washed with medium, inoculated with fresh medium (containing the indicated inhibitor) and incubated at 37° C. At each indicated time period, the cultures were washed with citrate buffer (pH 2.5) and reinoculated with fresh medium (lacking inhibitor). After a total of 44 hours incubation the cultures were stained and scored for HSV-2-induced plaques. The data are expressed as geometric means and standard errors derived from triplicate cultures per group.
In this experiment, HSV-2 was incubated with Vero cells in the absence or presence of n-docosanol at 4° C. to allow for receptor binding of the virus. At the end of 3 hours, all cultures were washed and then replated at 37° C. in order to initiate the viral entry process. At 20 minute intervals thereafter, the various cultures were exposed to pH 3.0 citrate buffer, conditions which remove and inactivate surface-bound, but not internalized, HSV virions, and then re-cultured the full 44 hour period required to develop optimal HSV plaques.

HSV [3] = experiment: HSV-induced plaques in Vero versus MDBK cells; assay type: cell-based
From the text: Of the counts that are metabolized in two cells lines, the relative amounts in the major classes of phosphatides that are formed, phosphatidylcholine and phosphatidylethanolamine, are not different in the two cell lines.

Friend virus = Friend virus induced leukemia and viremia in mice; assay type: in vivo, BALB/c mice; conditions: intravenous, day of virus and once daily for the next 3 days
Procedure: FIG. 12 depicts data showing that n-docosanol inhibits in vivo Friend virus induced leukemia and viremia. Adult BALB/c mice were injected intravenously with 75 spleen focus-forming units of FV. Treated groups were injected intravenously with the indicated doses of n-docosanol or Pluronic vehicle alone on the same day as virus inoculation and once daily for the next 3 days. After 10 days, half of the animals in each group were sacrificed and examined for leukemic foci in their spleens (panel A). The remaining mice were retained 10 more days and bled for viremia determinations (panel B). Viremia was measured using the X-C plaque assay. Briefly, primary fibroblast cultures were derived by digestion of 14-day BALB/c embryos with trypsin and culturing in DMEM plus 10% fetal calf serum. After 72 hours, the cells were transferred into 16-mm dishes (10^5/well), pretreated with 5 μg/ml polybrene and then infected with 75 X-C plaque-forming units of Friend virus stock or dilution of test plasma. After incubation for 7 days, the cultures were irradiated and overlaid with X-C cells (3×10^5/well). Three days later, the cultures were washed, stained, and scored for plaques of multinucleated giant cells. The data presented are geometric means and standard errors of splenic foci or X-C plaque-forming units derived from three animals per group. […]

[4] = Toxic, mutagenic, teratogenic properties
Water solubility = assay type: physicochemical

CCCCCCCCCCCCCCCCCCCCCCO [n-docosanol]
inhibition of plaque formation [1]: inhibited | direct viricidal activity (HSV [2]): no direct viricidal activity; also recorded: does not directly inactivate virus | time for internalization to reach completion (HSV-2): more than 1 hour | internalization of HSV complete (HSV-2; 20 minutes after the shift to 37° C.): less than 40% | effectiveness in inhibiting HSV-induced plaques, Vero versus MDBK cells (HSV [3]): 3-4 fold | development of leukemic foci in spleens (Friend virus; day 10): very clear dose-related inhibitory affect | development of viremia (Friend virus; day 20): very clear dose-related inhibitory affect | toxic, mutagenic, or teratogenic properties [4]: lacks any toxic, mutagenic, or teratogenic properties | water solubility (Water solubility): water-insoluble
